Data reported in US9567371B2, “Short beta-defensin-derived peptides” (Yeda Research and Development Co. Ltd., priority 2009, dated 2017).
Peptide text beside a SMILES is read from it.

Assays:
SDF-1 = SDF-1 plasma levels in injected mice (ELISA); assay type: in vivo, mouse; settings: 5 mg/kg s.c., compared with mice injected with PBS
Protocol: (§1) SDF-1 levels in tested samples were determined by ELISA as described (Kalinkovich, A., et al., 2006) where the K15C monoclonal antibodies (mAb, INRA, Paris, France) recognizing the first three amino acids of SDF-1 were utilized as a capture Ab (10 μg/mL) in order to measure levels of intact, non-cleaved SDF-1. Levels of basic FGF (bFGF) and HGF in tested samples were determined by using corresponding capture mAbs and polyclonal biotynilated Abs (R&D Systems) as recommended by the manufacturer. In order to examine SDF-1, bFGF and HGF levels in cell supernatants, MS-5, MBA-15 and MG-63 cells were seeded in 24-well Costar wells and cultivated in RPMI 1640 or αMEM Eagle medium, respectively, with 10% FCS. When the cells reached confluence, the medium was changed to serum free medium and cells were cultivated for additional 6 hrs in the presence of various concentrations of the peptides. Medium samples were collected and centrifuged 10 min at 6000×g at 4° C. to remove cell debris. Supernatants were collected and kept at −70° C. until tested.

MG-63 cells = assay: SDF-1, bFGF and HGF secretion by stromal cells (ELISA of supernatants); assay type: cell-based, human; settings: 10 μM, compared with untreated cells
Protocol: FIGS. 7A-7F. Effect of TL-1, AK-1 and cyclic TL-1 on SDF-1, bFGF and HGF secretion by different stromal cell lines. MS-5, MBA-15 and MG-63 cells were co-cultured with 10 μM TL-1, AK-1 or cyclic TL-1 in the serum free medium for 6 hrs, or without added peptide (UT). Levels of SDF-1 (A-C), bFGF (D) and HGF (E, F) were detected in the collected supernatants by ELISA. Data shown are the mean±SD of 2 separate experiments. *P<0.05 compared to control.
as §1, with “When the cells reached confluence, the medium was changed to serum free medium and cells were cultivated for additional 6 hrs in the presence of various concentrations of the peptides. Medium samples were collected and centrifuged 10 min at 6000×g at 4° C. to remove cell debris. Supernatants were collected and kept at −70° C. until tested.” left out
In order to examine the capability of the peptides to induce secretion of other proteins, the levels of Hepatocyte growth factor (HGF) and Basic fibroblast growth factor (bFGF) were detected in the same supernatants.

G2 cells [1] = assay: Transwell migration towards SDF-1; assay type: cell-based, human
Protocol: (§2) FIGS. 8A-8D. Effect of TL-1 and cyclic TL-1 on in vitro and in vivo cell migration. (A, C) Human CD3^+, G2, cord blood CD34^+ and peripheral blood mononuclear (PBMC) cells were preincubated with 1 and 10 μM TL-1 for 3 hrs in serum free medium, washed and allowed to migrate towards SDF-1. Migrated cells were collected and calculated by flow cytometry. Percentage of migrated cells is presented as compared to untreated (UT) control taken as 100%. (B) G2 cells were similarly preincubated with 10 μM TL-1 or cTL-1 for the indicated periods of time and percentage of migrated cells is depicted. (D) Homing assay. G2 cells were similarly preincubated with 10 μM TL-1 or cTL-1 for 3 hrs, washed and i.v. injected (10×10^6/mouse) to non-irradiated NOD/SCID mice. Percentage of G2 cells in the murine BM and spleens was determined by staining with anti-human CD45 Ab and compared with untreated (UT) cells. […]
FIGS. 9A-9B. […] Migrated cells were collected and calculated by flow cytometry. […]
Various cells (1×10^6/mL), untreated or pretreated with peptides for 3 hrs at 96-well flat bottom plates at 37° C. were washed, 2×10^5 cells/100 μL were added to the upper chambers of Costar 24-well transwell plates with 5 μm pore filters (Corning Inc., Corning, N.Y.) and allowed to migrate for 2-4 hrs at 37° C. […] Migrated cells were collected from the lower chambers and counted using a flow cytometer. […]

G2 cells [2] = assay: Homing assay of pretreated G2 cells in NOD/SCID mice; assay type: in vivo, mouse; settings: 10 μM pretreatment 3 hrs, i.v. into non-irradiated NOD/SCID mice, 16 hrs
Protocol: as §2
G2 cells (10×10^6/mL) pretreated with the peptides for 3 hrs as described above, were injected i.v. into non-irradiated NOD/SCID mice, which were sacrificed 16 hrs later. Samples of BM cells flushed from both femur and tibia bones and spleen cell suspension were prepared, and the percentage of human cells was determined by staining with anti-human CD45-FITC mAb (ImmunoQuality Products, Groningen, The Netherlands) as described (Spiegel, A., et al., 2004).

**Q.** How did the SDF-1 plasma levels (SDF-1) turn out when `N=C(N)NCCC[C@@H]1NC(=O)CNC(=O)[C@H](CCCNC(=N)N)NC(=O)[C@H](CCCCN)NC(=O)[C@H](CCCCN)NC(=O)[C@H](CCCNC(=N)N)NC(=O)[C@H](CCCNC(=N)N)NC(=O)[C@H](CS)NC(=O)[C@H](CS)NC(=O)[C@H](CCCCN)NC1=O` [cyclic TL-1, 1,10-cyclo[RGRKCCRRKK]] (cyclo(CCRRKKRGRK)) was run?
**A.** did not induce increase

**Q.** And the “levels of SDF-1 in supernatants” value (MG-63 cells)?
**A.** ineffective

**Q.** And the SDF-1-induced migration (G2 cells [1]; 1 μM)?
**A.** ineffective

**Q.** What about the “inhibition of SDF-1-induced migration” value (G2 cells [1]; 10 μM) of the same compound?
**A.** 2 fold

**Q.** What about the “homing of pretreated G2 cells to the BM” value (G2 cells [2]) of the same compound?
**A.** decrease the homing

**Q.** What about the “homing of pretreated G2 cells to the spleen” value (G2 cells [2]) of the same compound?
**A.** decreased G2 cell homing
